# Source: EPA's ToxValDB 9.5 (doi:10.2903/j.efsa.2007.111r)
# Assays:
# Colinus virginianus = conditions: acute; oral; mortality
# Apis mellifera = conditions: acute; duration: 48 hours; dermal; mortality
# Tagia sp. = conditions: acute; duration: 14 days; mortality
# Bibionidae = conditions: chronic/long-term; duration: 25 days; development
# Daphnia magna = conditions: chronic/long-term; duration: 21 days; reproduction
structure (smiles),measurement,setting,value
CCCN(CCC)C(=O)SCc1ccccc1 [Prosulfocarb],LD50,Colinus virginianus,> 2250 mg/kg-day
same,LD50,Apis mellifera,> 80 µg/piece
same,LC50,"Oncorhynchus mykiss; acute, duration: 96 hours, mortality",0.84 µg/mL
same,NOEC,"Oncorhynchus mykiss; chronic/long-term, duration: 21 days, other",0.31 mg/L
same,LD50,"Rattus norvegicus; acute, oral, mortality",1820 mg/kg-day
same,NOAEL,"Rattus norvegicus; chronic, duration: 2 years, oral, body weight",0.5 mg/kg-day
same,NOAEL,"Rattus norvegicus; reproduction developmental, body weight",0.5 mg/kg-day
same,NOAEL,"Rattus norvegicus; reproduction developmental, clinical signs",10 mg/kg-day
same,NOAEL,"Rattus norvegicus; reproduction developmental, reproduction",> 50 mg/kg-day
same,NOAEL,"Rattus norvegicus; subchronic, duration: 90 days, oral, body weight",1 mg/kg-day
same,LC50,Tagia sp.,144 mg/kg
same,NOEL,Anas platyrhynchos; reproductive,131 mg/kg-day
same,LD50,"Anas platyrhynchos; short-term, oral, feed, mortality",> 1510 mg/kg-day
same,NOEC,Bibionidae,1.25 mg/L
same,NOEC,Daphnia magna,0.045 mg/L
